Laboratory results reported in BigSolDB 2.1.

CC(C)C(=O)Nc1ccc([N+](=O)[O-])c(C(F)(F)F)c1
solubility (mole fraction) (in 1,4-dioxane, 283.15 K): 0.108
solubility (mole fraction) (in 1,4-dioxane, 288.15 K): 0.127
solubility (mole fraction) (in 1,4-dioxane, 293.15 K): 0.151
solubility (mole fraction) (in 1,4-dioxane, 298.15 K): 0.177
solubility (mole fraction) (in 1,4-dioxane, 303.15 K): 0.203
solubility (mole fraction) (in 1,4-dioxane, 308.15 K): 0.231
solubility (mole fraction) (in 1,4-dioxane, 313.15 K): 0.262
solubility (mole fraction) (in 1,4-dioxane, 318.15 K): 0.299
solubility (mole fraction) (in 1,4-dioxane, 323.15 K): 0.348
solubility (mole fraction) (in THF, 278.15 K): 0.259
solubility (mole fraction) (in THF, 283.15 K): 0.276
solubility (mole fraction) (in THF, 288.15 K): 0.297
solubility (mole fraction) (in THF, 293.15 K): 0.321
solubility (mole fraction) (in THF, 298.15 K): 0.348
solubility (mole fraction) (in THF, 303.15 K): 0.376
solubility (mole fraction) (in THF, 308.15 K): 0.405
solubility (mole fraction) (in THF, 313.15 K): 0.436
solubility (mole fraction) (in THF, 318.15 K): 0.469
solubility (mole fraction) (in THF, 323.15 K): 0.502
solubility (mole fraction) (in acetone, 278.15 K): 0.186
solubility (mole fraction) (in acetone, 283.15 K): 0.201
solubility (mole fraction) (in acetone, 288.15 K): 0.228
solubility (mole fraction) (in acetone, 293.15 K): 0.258
solubility (mole fraction) (in acetone, 298.15 K): 0.291
solubility (mole fraction) (in acetone, 303.15 K): 0.327
solubility (mole fraction) (in acetone, 308.15 K): 0.366
solubility (mole fraction) (in acetone, 313.15 K): 0.407
solubility (mole fraction) (in acetone, 318.15 K): 0.45
solubility (mole fraction) (in acetone, 323.15 K): 0.49
solubility (mole fraction) (in acetonitrile, 278.15 K): 0.0566
solubility (mole fraction) (in acetonitrile, 283.15 K): 0.0711
solubility (mole fraction) (in acetonitrile, 288.15 K): 0.0902
solubility (mole fraction) (in acetonitrile, 293.15 K): 0.119
solubility (mole fraction) (in acetonitrile, 298.15 K): 0.157
solubility (mole fraction) (in acetonitrile, 303.15 K): 0.197
solubility (mole fraction) (in acetonitrile, 308.15 K): 0.246
solubility (mole fraction) (in acetonitrile, 313.15 K): 0.296
solubility (mole fraction) (in acetonitrile, 318.15 K): 0.355
solubility (mole fraction) (in acetonitrile, 323.15 K): 0.427
solubility (mole fraction) (in ethanol, 278.15 K): 0.0503
solubility (mole fraction) (in ethanol, 283.15 K): 0.0556
solubility (mole fraction) (in ethanol, 288.15 K): 0.063
solubility (mole fraction) (in ethanol, 293.15 K): 0.0709
solubility (mole fraction) (in ethanol, 298.15 K): 0.0797
solubility (mole fraction) (in ethanol, 303.15 K): 0.0908
solubility (mole fraction) (in ethanol, 308.15 K): 0.102
solubility (mole fraction) (in ethanol, 313.15 K): 0.117
solubility (mole fraction) (in ethanol, 318.15 K): 0.133
solubility (mole fraction) (in ethanol, 323.15 K): 0.154
solubility (mole fraction) (in ethyl acetate, 278.15 K): 0.161
solubility (mole fraction) (in ethyl acetate, 283.15 K): 0.178
solubility (mole fraction) (in ethyl acetate, 288.15 K): 0.191
solubility (mole fraction) (in ethyl acetate, 293.15 K): 0.206
solubility (mole fraction) (in ethyl acetate, 298.15 K): 0.227
solubility (mole fraction) (in ethyl acetate, 303.15 K): 0.246
solubility (mole fraction) (in ethyl acetate, 308.15 K): 0.269
solubility (mole fraction) (in ethyl acetate, 313.15 K): 0.29
solubility (mole fraction) (in ethyl acetate, 318.15 K): 0.321
solubility (mole fraction) (in ethyl acetate, 323.15 K): 0.351
solubility (mole fraction) (in isobutanol, 278.15 K): 0.0307
solubility (mole fraction) (in isobutanol, 283.15 K): 0.0381
solubility (mole fraction) (in isobutanol, 288.15 K): 0.0487
solubility (mole fraction) (in isobutanol, 293.15 K): 0.0632
solubility (mole fraction) (in isobutanol, 298.15 K): 0.0776
solubility (mole fraction) (in isobutanol, 303.15 K): 0.0965
solubility (mole fraction) (in isobutanol, 308.15 K): 0.118
solubility (mole fraction) (in isobutanol, 313.15 K): 0.141
solubility (mole fraction) (in isobutanol, 318.15 K): 0.171
solubility (mole fraction) (in isobutanol, 323.15 K): 0.207
solubility (mole fraction) (in isopropanol, 278.15 K): 0.0539
solubility (mole fraction) (in isopropanol, 283.15 K): 0.0609
solubility (mole fraction) (in isopropanol, 288.15 K): 0.0692
solubility (mole fraction) (in isopropanol, 293.15 K): 0.0799
solubility (mole fraction) (in isopropanol, 298.15 K): 0.0918
solubility (mole fraction) (in isopropanol, 303.15 K): 0.105
solubility (mole fraction) (in isopropanol, 308.15 K): 0.121
solubility (mole fraction) (in isopropanol, 313.15 K): 0.139
solubility (mole fraction) (in isopropanol, 318.15 K): 0.161
solubility (mole fraction) (in isopropanol, 323.15 K): 0.182
solubility (mole fraction) (in methanol, 278.15 K): 0.0401
solubility (mole fraction) (in methanol, 283.15 K): 0.047
solubility (mole fraction) (in methanol, 288.15 K): 0.0555
solubility (mole fraction) (in methanol, 293.15 K): 0.0641
solubility (mole fraction) (in methanol, 298.15 K): 0.0757
solubility (mole fraction) (in methanol, 303.15 K): 0.0878
solubility (mole fraction) (in methanol, 308.15 K): 0.103
solubility (mole fraction) (in methanol, 313.15 K): 0.12
solubility (mole fraction) (in methanol, 318.15 K): 0.142
solubility (mole fraction) (in methanol, 323.15 K): 0.166
solubility (mole fraction) (in methyl acetate, 278.15 K): 0.141
solubility (mole fraction) (in methyl acetate, 283.15 K): 0.157
solubility (mole fraction) (in methyl acetate, 288.15 K): 0.179
solubility (mole fraction) (in methyl acetate, 293.15 K): 0.208
solubility (mole fraction) (in methyl acetate, 298.15 K): 0.24
solubility (mole fraction) (in methyl acetate, 303.15 K): 0.275
solubility (mole fraction) (in methyl acetate, 308.15 K): 0.312
solubility (mole fraction) (in methyl acetate, 313.15 K): 0.35
solubility (mole fraction) (in methyl acetate, 318.15 K): 0.396
solubility (mole fraction) (in methyl acetate, 323.15 K): 0.447
solubility (mole fraction) (in n-butanol, 278.15 K): 0.049
solubility (mole fraction) (in n-butanol, 283.15 K): 0.0549
solubility (mole fraction) (in n-butanol, 288.15 K): 0.0622
solubility (mole fraction) (in n-butanol, 293.15 K): 0.0709
solubility (mole fraction) (in n-butanol, 298.15 K): 0.0797
solubility (mole fraction) (in n-butanol, 303.15 K): 0.0904
solubility (mole fraction) (in n-butanol, 308.15 K): 0.103
solubility (mole fraction) (in n-butanol, 313.15 K): 0.117
solubility (mole fraction) (in n-butanol, 318.15 K): 0.135
solubility (mole fraction) (in n-butanol, 323.15 K): 0.156
solubility (mole fraction) (in n-propanol, 278.15 K): 0.049
solubility (mole fraction) (in n-propanol, 283.15 K): 0.0547
solubility (mole fraction) (in n-propanol, 288.15 K): 0.0624
solubility (mole fraction) (in n-propanol, 293.15 K): 0.0698
solubility (mole fraction) (in n-propanol, 298.15 K): 0.0784
solubility (mole fraction) (in n-propanol, 303.15 K): 0.0889
solubility (mole fraction) (in n-propanol, 308.15 K): 0.101
solubility (mole fraction) (in n-propanol, 313.15 K): 0.115
solubility (mole fraction) (in n-propanol, 318.15 K): 0.132
solubility (mole fraction) (in n-propanol, 323.15 K): 0.15
